In ChEMBL document CHEMBL3045723, “Synthesis of novel 3-(5-sulfanyl-1,3,4-oxadiazol-2-yl)-2H-chromen-2-one condensed s-triazinyl piperazines and piperidines as antimicrobial agents” (2012):
Values after ≈ are worked out from the molar mass of the structure shown.

Columns and labels:
Candida albicans [1] = assay: Antifungal activity against Candida albicans MTCC 183 after 48 hr; assay type: functional; settings: MTCC 183, 48 h
Aspergillus niger [2] = assay: Antifungal activity against Aspergillus niger MTCC 282 after 48 hr; assay type: functional; settings: MTCC 282, 48 h
Candida albicans [3] = assay: Antifungal activity against Candida albicans MTCC 183 after 24 hr by agar disk diffusion test; assay type: functional
Aspergillus niger [4] = assay: Antifungal activity against Aspergillus niger MTCC 282 after 24 hr by agar disk diffusion test; assay type: functional
Shigella flexneri [5] = assay: Antibacterial activity against Shigella flexneri after 24 hr; assay type: functional
Proteus vulgaris [6] = assay: Antibacterial activity against Proteus vulgaris MTCC 1771 after 24 hr; assay type: functional; settings: MTCC 1771, 24 h
Salmonella typhi [7] = assay: Antibacterial activity against Salmonella enterica subsp. enterica serovar Typhi MTCC 733 after 24 hr; assay type: functional; settings: MTCC 733, 24 h
Shigella flexneri [8] = assay: Antibacterial activity against Shigella flexneri after 24 hr by agar disk diffusion test; assay type: functional
Proteus vulgaris [9] = assay: Antibacterial activity against Proteus vulgaris MTCC 1771 after 24 hr by agar disk diffusion test; assay type: functional
Salmonella typhi [10] = assay: Antibacterial activity against Salmonella enterica subsp. enterica serovar Typhi MTCC 733 after 24 hr by agar disk diffusion test; assay type: functional
Klebsiella pneumoniae [11] = assay: Antibacterial activity against Klebsiella pneumoniae MTCC 109 after 24 hr by agar disk diffusion test; assay type: functional
Pseudomonas aeruginosa [12] = assay: Antibacterial activity against Pseudomonas aeruginosa MTCC 741 after 24 hr by agar disk diffusion test; assay type: functional
Escherichia coli [13] = assay: Antibacterial activity against Escherichia coli MTCC 739 after 24 hr by agar disk diffusion test; assay type: functional
Bacillus cereus [14] = assay: Antibacterial activity against Bacillus cereus MTCC 619 after 24 hr by agar disk diffusion test; assay type: functional
Staphylococcus aureus [15] = assay: Antibacterial activity against Staphylococcus aureus MTCC 96 after 24 hr by agar disk diffusion test; assay type: functional
Klebsiella pneumoniae [16] = assay: Antibacterial activity against Klebsiella pneumoniae MTCC 109 after 24 hr; assay type: functional; settings: MTCC 109, 24 h
Pseudomonas aeruginosa [17] = assay: Antibacterial activity against Pseudomonas aeruginosa MTCC 741; assay type: functional
Escherichia coli [18] = assay: Antibacterial activity against Escherichia coli MTCC 739 after 24 hr; assay type: functional; settings: MTCC 739, 24 h
Bacillus cereus [19] = assay: Antibacterial activity against Bacillus cereus MTCC 619 after 24 hr; assay type: functional; settings: MTCC 619, 24 h
Staphylococcus aureus [20] = assay: Antibacterial activity against Staphylococcus aureus MTCC 96 after 24 hr; assay type: functional; settings: MTCC 96, 24 h
Bacillus cereus [21] = assay: Antibacterial activity against Bacillus cereus MTCC 619 at 100 ug/disk after 24 hr by agar disk diffusion test; assay type: functional; settings: MTCC 619, 24 h, read-out: IZ
Staphylococcus aureus [22] = assay: Antibacterial activity against Staphylococcus aureus MTCC 96 at 100 ug/disc after 24 hr by agar disk diffusion test; settings: MTCC 96, 24 h, read-out: IZ
Shigella flexneri [23] = assay: Antibacterial activity against Shigella flexneri at 100 ug/disc after 24 hr by agar disk diffusion test; assay type: functional; settings: read-out: IZ
Proteus vulgaris [24] = assay: Antibacterial activity against Proteus vulgaris MTCC 1771 at 100 ug/disk after 24 hr by agar disk diffusion test; assay type: functional; settings: MTCC 1771, 24 h, read-out: IZ
Salmonella typhi [25] = assay: Antibacterial activity against Salmonella enterica subsp. enterica serovar Typhi MTCC 733 at 100 ug/disk after 24 hr by agar disk diffusion test; assay type: functional; settings: MTCC 733, 24 h, read-out: IZ
Pseudomonas aeruginosa [26] = assay: microbe, parasite or virus in culture; settings: MTCC 741, 24 h, read-out: IZ
Description: Antibacterial activity against Pseudomonas aeruginosa MTCC 741 at 100 ug/disk after 24 hr by agar disk diffusion test

Escherichia coli [27] = assay: microbe, parasite or virus in culture; settings: MTCC 739, 24 h, read-out: IZ
Description: Antibacterial activity against Escherichia coli MTCC 739 at 100 ug/disk after 24 hr by agar disk diffusion test

Klebsiella pneumoniae [28] = assay: microbe, parasite or virus in culture; settings: MTCC 109, 24 h, read-out: IZ
Description: Antibacterial activity against Klebsiella pneumoniae MTCC 109 at 100 ug/disk after 24 hr by agar disk diffusion test

Candida albicans [29] = assay: Antifungal activity against Candida albicans MTCC 183 at 100 ug/disk after 24 hr by agar disk diffusion test; assay type: functional; settings: MTCC 183, 24 h, read-out: IZ
Aspergillus niger [30] = assay: Antifungal activity against Aspergillus niger MTCC 282 at 100 ug/disk after 24 hr by agar disk diffusion test; assay type: functional; settings: MTCC 282, 24 h, read-out: IZ

CN1CCN(c2nc(Oc3cccc4cccnc34)nc(Sc3nnc(-c4cc5ccccc5oc4=O)o3)n2)CC1
MIC (Candida albicans [1]): 100 µg/mL (≈ 176 µM) | MIC (Aspergillus niger [2]): 100 µg/mL (≈ 176 µM) | inhibition zone (IZ) (Candida albicans [3]): 11 mm | inhibition zone (IZ) (Aspergillus niger [4]): <10 mm | MIC (Shigella flexneri [5]): 100 µg/mL (≈ 176 µM) | MIC (Proteus vulgaris [6]): 100 µg/mL (≈ 176 µM) | MIC (Salmonella typhi [7]): 100 µg/mL (≈ 176 µM) | inhibition zone (IZ) (Shigella flexneri [8]): 18 mm | inhibition zone (IZ) (Proteus vulgaris [9]): 11 mm | inhibition zone (IZ) (Salmonella typhi [10]): 16 mm | inhibition zone (IZ) (Klebsiella pneumoniae [11]): 12 mm | inhibition zone (IZ) (Pseudomonas aeruginosa [12]): 19 mm | inhibition zone (IZ) (Escherichia coli [13]): 12 mm | inhibition zone (IZ) (Bacillus cereus [14]): <10 mm | inhibition zone (IZ) (Staphylococcus aureus [15]): 13 mm | MIC (Klebsiella pneumoniae [16]): 100 µg/mL (≈ 176 µM) | MIC (Pseudomonas aeruginosa [17]): 100 µg/mL (≈ 176 µM) | MIC (Escherichia coli [18]): 100 µg/mL (≈ 176 µM) | MIC (Bacillus cereus [19]): 100 µg/mL (≈ 176 µM) | MIC (Staphylococcus aureus [20]): 100 µg/mL (≈ 176 µM)

CCN1CCN(c2nc(Oc3cccc4cccnc34)nc(Sc3nnc(-c4cc5ccccc5oc4=O)o3)n2)CC1
MIC (Candida albicans [1]): 100 µg/mL (≈ 172 µM) | MIC (Aspergillus niger [2]): 100 µg/mL (≈ 172 µM) | inhibition zone (IZ) (Candida albicans [3]): 13 mm | inhibition zone (IZ) (Aspergillus niger [4]): <10 mm | MIC (Shigella flexneri [5]): 100 µg/mL (≈ 172 µM) | MIC (Proteus vulgaris [6]): 100 µg/mL (≈ 172 µM) | MIC (Salmonella typhi [7]): 100 µg/mL (≈ 172 µM) | inhibition zone (IZ) (Shigella flexneri [8]): 20 mm | inhibition zone (IZ) (Proteus vulgaris [9]): 12 mm | inhibition zone (IZ) (Salmonella typhi [10]): 16 mm | inhibition zone (IZ) (Klebsiella pneumoniae [11]): 14 mm | inhibition zone (IZ) (Pseudomonas aeruginosa [12]): 18 mm | inhibition zone (IZ) (Escherichia coli [13]): 16 mm | inhibition zone (IZ) (Bacillus cereus [14]): 13 mm | inhibition zone (IZ) (Staphylococcus aureus [15]): 15 mm | MIC (Klebsiella pneumoniae [16]): 100 µg/mL (≈ 172 µM) | MIC (Pseudomonas aeruginosa [17]): 100 µg/mL (≈ 172 µM) | MIC (Escherichia coli [18]): 100 µg/mL (≈ 172 µM) | MIC (Bacillus cereus [19]): 100 µg/mL (≈ 172 µM) | MIC (Staphylococcus aureus [20]): 100 µg/mL (≈ 172 µM)

O=c1oc2ccccc2cc1-c1nnc(Sc2nc(Oc3cccc4cccnc34)nc(N3CCN(c4cccc(Cl)c4)CC3)n2)o1
MIC (Candida albicans [1]): 50 µg/mL (≈ 75.4 µM) | MIC (Aspergillus niger [2]): 100 µg/mL (≈ 151 µM) | inhibition zone (IZ) (Candida albicans [3]): 20 mm | inhibition zone (IZ) (Aspergillus niger [4]): 20 mm | MIC (Shigella flexneri [5]): 100 µg/mL (≈ 151 µM) | MIC (Proteus vulgaris [6]): 100 µg/mL (≈ 151 µM) | MIC (Salmonella typhi [7]): 100 µg/mL (≈ 151 µM) | inhibition zone (IZ) (Shigella flexneri [8]): 19 mm | inhibition zone (IZ) (Proteus vulgaris [9]): 19 mm | inhibition zone (IZ) (Salmonella typhi [10]): 17 mm | inhibition zone (IZ) (Klebsiella pneumoniae [11]): 15 mm | inhibition zone (IZ) (Pseudomonas aeruginosa [12]): 14 mm | inhibition zone (IZ) (Escherichia coli [13]): 25 mm | inhibition zone (IZ) (Bacillus cereus [14]): 17 mm | inhibition zone (IZ) (Staphylococcus aureus [15]): 17 mm | MIC (Klebsiella pneumoniae [16]): 100 µg/mL (≈ 151 µM) | MIC (Pseudomonas aeruginosa [17]): 100 µg/mL (≈ 151 µM) | MIC (Escherichia coli [18]): 25 µg/mL (≈ 37.7 µM) | MIC (Bacillus cereus [19]): 100 µg/mL (≈ 151 µM) | MIC (Staphylococcus aureus [20]): 100 µg/mL (≈ 151 µM)

O=c1oc2ccccc2cc1-c1nnc(Sc2nc(Oc3cccc4cccnc34)nc(N3CCN(c4cccc(Cl)c4Cl)CC3)n2)o1
MIC (Candida albicans [1]): 50 µg/mL (≈ 71.7 µM) | MIC (Aspergillus niger [2]): 25 µg/mL (≈ 35.8 µM) | inhibition zone (IZ) (Candida albicans [3]): 21 mm | inhibition zone (IZ) (Aspergillus niger [4]): 23 mm | MIC (Shigella flexneri [5]): 100 µg/mL (≈ 143 µM) | MIC (Proteus vulgaris [6]): 100 µg/mL (≈ 143 µM) | MIC (Salmonella typhi [7]): 100 µg/mL (≈ 143 µM) | inhibition zone (IZ) (Shigella flexneri [8]): 21 mm | inhibition zone (IZ) (Proteus vulgaris [9]): 17 mm | inhibition zone (IZ) (Salmonella typhi [10]): 19 mm | inhibition zone (IZ) (Klebsiella pneumoniae [11]): 21 mm | inhibition zone (IZ) (Pseudomonas aeruginosa [12]): 20 mm | inhibition zone (IZ) (Escherichia coli [13]): 24 mm | inhibition zone (IZ) (Bacillus cereus [14]): 22 mm | inhibition zone (IZ) (Staphylococcus aureus [15]): 21 mm | MIC (Klebsiella pneumoniae [16]): 25 µg/mL (≈ 35.8 µM) | MIC (Pseudomonas aeruginosa [17]): 50 µg/mL (≈ 71.7 µM) | MIC (Escherichia coli [18]): 25 µg/mL (≈ 35.8 µM) | MIC (Bacillus cereus [19]): 25 µg/mL (≈ 35.8 µM) | MIC (Staphylococcus aureus [20]): 50 µg/mL (≈ 71.7 µM)

O=C(O)c1cn(C2CC2)c2cc(N3CCNCC3)c(F)cc2c1=O [CIPROFLOXACIN]
MIC (Shigella flexneri [5]): 1.56 µg/mL (≈ 4.71 µM) | MIC (Proteus vulgaris [6]): 0.39 µg/mL (≈ 1.18 µM) | MIC (Salmonella typhi [7]): 0.39 µg/mL (≈ 1.18 µM) | zone of inhibition at 100 µg/disc (Bacillus cereus [21]): 31 mm | zone of inhibition at 100 µg/disc (Staphylococcus aureus [22]): 30 mm | MIC (Klebsiella pneumoniae [16]): 0.78 µg/mL (≈ 2.35 µM) | MIC (Pseudomonas aeruginosa [17]): 0.78 µg/mL (≈ 2.35 µM) | MIC (Bacillus cereus [19]): 0.39 µg/mL (≈ 1.18 µM) | MIC (Staphylococcus aureus [20]): 1.56 µg/mL (≈ 4.71 µM) | zone of inhibition at 100 µg/disc (Shigella flexneri [23]): 32 mm | zone of inhibition at 100 µg/disc (Proteus vulgaris [24]): 31 mm | zone of inhibition at 100 µg/disc (Salmonella typhi [25]): 30 mm | zone of inhibition at 100 µg/disc (Pseudomonas aeruginosa [26]): 33 mm | zone of inhibition at 100 µg/disc (Escherichia coli [27]): 32 mm | zone of inhibition at 100 µg/disc (Klebsiella pneumoniae [28]): 33 mm

CC(=O)N1CCN(c2ccc(OCC3COC(Cn4ccnc4)(c4ccc(Cl)cc4Cl)O3)cc2)CC1 (centres undefined) [KETOCONAZOLE]
MIC (Candida albicans [1]): 1.56 µg/mL (≈ 2.94 µM) | MIC (Aspergillus niger [2]): 1.56 µg/mL (≈ 2.94 µM) | zone of inhibition at 100 µg/disc (Candida albicans [29]): 33 mm | zone of inhibition at 100 µg/disc (Aspergillus niger [30]): 30 mm
